One test concerns the target T1, hKir2.1 (Homo sapiens, UniProt P63252).
T1 construct: expressed in transfected cells
T1 sequence (P63252 1-427): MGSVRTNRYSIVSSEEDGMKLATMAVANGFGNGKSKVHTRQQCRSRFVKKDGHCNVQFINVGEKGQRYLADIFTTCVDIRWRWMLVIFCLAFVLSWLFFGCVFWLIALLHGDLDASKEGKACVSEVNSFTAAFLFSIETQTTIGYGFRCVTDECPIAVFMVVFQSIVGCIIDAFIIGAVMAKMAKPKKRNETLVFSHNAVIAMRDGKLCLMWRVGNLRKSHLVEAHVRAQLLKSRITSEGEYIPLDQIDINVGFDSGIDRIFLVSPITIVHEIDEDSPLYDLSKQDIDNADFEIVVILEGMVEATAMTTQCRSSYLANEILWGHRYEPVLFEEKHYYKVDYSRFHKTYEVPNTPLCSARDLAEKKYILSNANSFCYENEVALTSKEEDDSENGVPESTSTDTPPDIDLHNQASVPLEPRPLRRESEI
Briefly: Tl+ flux assay, mammalian Kir2.1. The class given is cell-based. The conditions noted are these: Tl+ flux assay; read-out: Kir2.1 IC50 (Tl+ flux). The method, then:
The open-reading frame of a full-length cDNA encoding AnKir1 cloned from An. gambiae Malpighian tubules (Genbank Accession # KJ596497)[17] was sub-cloned into the pcDNA5/TO expression vector (Life Technologies) and used for stable cell line generation, as described previously. Expression constructs for mammalian Kir channels were developed and validated in previous studies by our group.
Tl+ flux assay development
Tl+ flux assays were performed essentiall y as described previousl y (1). Briefl y, stabl y transfect ed T-Rex -HEK- 293- AnKir1 cells were cultured overnight in 384-well plates in media containing DMEM, 10% dial yz ed FBS and 1μg/ m L tetrac ycline to induce channel expression
(Fig. S1A). The next day, the cell culture medium was replaced with a dye-loading solution containing assay buffer (Hanks Balanced Salt Solution with 20 mM HEPES, pH 7.3), 0.01% (w/v) Pluronic F-127 (Li fe Technologies, Carlsbad, CA), and 1.2 μM of the thallium-sensitive dye Thallos-AM (TEFl abs, Austin, TX). Following 1 hr incubation at room temperature, the d ye-loading solution was washed from the plates and replaced with 20 μ L/well of assa y buffer. The plates were transferred t o a Ham amatsu Functional Drug Screening System 6000 (FDSS6000; Hamamatsu, Tokyo, J apan) where 20 μ L/well of test compounds in assay buffer (as prepared below) were added and allowed to incubate with the cells for 20 min. After the incubation period, a baseline recordi ng was collected at 1 Hz for 10 s (excitation 470 ± 20 nm, emission 540 ± 30 nm) followed by a t hallium stimulus buffer addition (10 μL/well) and data collection for an additional 4 min. The Tl + stimulus buffer contains in (mM) 125 NaHCO3, 1.8 CaSO4, 1 MgSO4, 5 glucose, 12 Tl2SO4, 10 HEPES, pH 7.4. For Tl + flux assays on Kir2.x, Kir4.1 and Kir6.2/SUR1 ex pressing cells, the Tl+ stimulus buffer contained 1.8 mM Tl 2SO4. […]
Prism software (GraphPad Software) was used to generate CRC from Tl+ fl ux ..Half-inhibition concentration (IC50) values were calculated from fits using a four parameter logistic equation.
High-throughput screeni ng
The test compounds were transferred to daughter pol yprop ylene 384-well plates (G reiner Bio-One, Monroe, NC) using an Echo555 liquid handler (Labcyte, Sunnyvale, CA), and then diluted into assay buffer to generat e a 2X stock in 0.6% DMSO (0.3% final). […]
Concentration- response curves (CRCs) were gener ated b y screening compounds at 3-fold dilution series (1 nM - 30 μM).
Tl+ flux data were anal yzed as previousl y d escri bed (2, 3) using a combination of Excel (Microsoft Corp, Redmond, WA) with XLfit add-in (IDBS, Guildford, Surre y, UK), Ori ginPro (Ori gin Lab, Northampton, MA), and GraphPad Prism (GraphPad Software, San Diego, CA, USA) software. R aw data were opened in Excel and each data point in a gi ven trace was divided by the first data point from that trace (static ratio) followed by subtraction of data points from control traces gen erated in presence of vehicl e co ntrols. The slope of the fluorescen ce increas e beginning 5 s after Tl+ addition and ending 15 s after Tl + addition was calcu lated.
One may read the IC50 as the concentration needed to halve the response being measured. As for `O=C(Cn1nc(C(F)(F)F)c2c1CCCC2)N1CCCc2ccccc21` [VU041, 1-(3,4-dihydroquinolin-1(2H)-yl)-2-(3-(trifluoromethyl)-4,5,6,7-tetrahydro-1H-indazol-1-yl)ethan-1-one], the IC50 turned out to be 12.7 µM.
On to `O=C(Cn1ncc2c1CCOC2)N1CCCc2ccccc21` [VU730], for which the IC50 was more than 30 µM.

The test is the same for the next values; noted with them: Tl+ flux; Tables S2/S3 and supplemental text; read-out: hKir2.1 IC50.
For `O=C1CCCc2c1ccn2CC(=O)N1CCCc2ccccc21` [Compound 4], the 50% inhibitory concentration (IC50) is more than 30 µM.
On to `O=C(Cn1nc(C(F)(F)F)c2c1CCCC2)N1CCCC2CCCCC21` (stereo not shown) [Compound 9], for which the IC50 is more than 30 µM.
Same read-out and setting: the figure for `O=C(Cn1nc(C(F)(F)F)c2c1CCCC2)N1CCCC(c2ccccc2)C1` (stereo not shown) [Compound 12] is more than 30 µM; for `CC1CC(C)CN(C(=O)Cn2nc(C(F)(F)F)c3c2CCCC3)C1` (stereo not shown) [Compound 13] it is more than 30 µM.
Same read-out and setting: the figure for `O=C(Cn1nc(C(F)(F)F)c2c1CCCC2)N1CCCc2ccccc21` [VU041, 1-(3,4-dihydroquinolin-1(2H)-yl)-2-(3-(trifluoromethyl)-4,5,6,7-tetrahydro-1H-indazol-1-yl)ethan-1-one] is 11.3 µM.

Source of the values: PMC5111108, “An insecticide resistance-breaking mosquitocide targeting inward rectifier potassium channels in vectors of Zika virus and malaria” (Scientific Reports, 2016).
